“Also recorded” adds a separate entry of the source.
Experiments:
[1] = system: purified chick sensory neurons (PC12 or SH-SY5Y cells); details: literature; cited from earlier work
[2] = system: calcineurin; details: cited from earlier work
[3] = system: DRG explants; experiment: DRG explant neurite outgrowth with anti-NGF neutralizing antibodies or MEK1 inhibitor; format: cell-based, C57B1/6 mice
Method: (A) DRGs were prepared and cultured as above, except that either the MEK1 inhibitor, PD 098059, or NGF-neutralizing antibodies were included in cultures treated with either NGF or GM-284. Maximal response was determined to be the extent of neurite outgrowth when DRGs were cultured in NGF alone (spotted bars) or in 1 μM GM-284 (striped bars). As indicated, DRGs were treated with either NGF or GM-284, in the presence of either 0.25 mg/ml anti-NGF neutralizing antibodies or PD 098059. […] DRGs were treated with 100 ng/ml NGF or 1 μM GM-284, for 30 min or 4 h, as indicated, and the detergent lysates were prepared and immunoblotted with anti-phospho-Erk monoclonal antibody. The p42 and p44 bands are indicated by arrowheads.
Explanted DRG ganglia were dissected from P1 to P3 C57B1/6 mice, as previously described (Weinstein et al., Targeted expression of an oncogenic adaptor protein v-Crk potentiates axonal growth in dorsal root ganglia and motor neurons in vivo. Brain Res. Dev. Brain Res., 116:29-39, 1999). Briefly, DRGs were dissected and placed in ice-cold PBS containing 2% glucose, then transferred onto polyornithine/laminin-coated tissue culture plates (Biocoat, Becton Dickinson Laboratories) in DMEM-plating medium overnight. The plating medium consisted of Dulbecco's minimal essential plating medium (DMEM) supplemented with 10% fetal calf serum (FCS; Hyclone), 0.6% glucose, 2 mM glutamine, 100 U/ml penicillin, 100 μg/ml streptomycin, and 20 mM HEPES. […] For experiments employing anti-NGF neutralizing antibodies, cultures were incubated with […] anti-NGF antiserum, and replaced every two days. Cultures were kept at 37° C., in 5% CO2, for up to 1 week, at which time the extent of well-defined neurite outgrowth was assessed.
Signaling by the neurotrophins, while mediated by different cell-surface receptors, converges on the extensively studied and well-characterized MAP kinase pathway. […] Therefore, the inventors explored the possibility that GM-284 might signal through NGF directly, or through the MAP kinase cascade. […]

Compound	neurite outgrowth without other signaling molecules / with sub-threshold NGF [1]	binding to / inhibition of calcineurin [2]	effect of anti-NGF / MEK1 inhibition on GM-284-mediated neurite outgrowth ([3]; DRGs cultured in 1 μM GM-284 plus inhibitor)	decrease of NGF-dependent neurite outgrowth ([3]; DRGs cultured in NGF plus inhibitor)
CCC(C)(C)C(=O)C(=O)N1CCC[C@H]1C(=O)OCCCc1cccnc1 [GPI-1046]	potentiate neurite outgrowth only when co-administered with sub-threshold concentrations of NGF; also recorded: unable to mediate neurite outgrowth in the absence of other signaling molecules	neither bind to, nor inhibit, calcineurin	–	–
COc1cccc(-c2cc(=O)c3ccccc3o2)c1N [PD 098059]	–	–	no effect	~40%

— US20040266811A1, “Methods for inducing regeneration, remyelination, and hypermyelination of nervous tissue” (priority 2002, published 2004)
